Experiment [1] relates to PH domains whose lipid binding properties were investigated in FIG. 2 (GST fusions). The experiment in a line: Protein-lipid overlay. The conditions noted are these: data not shown. How it is done: FIG. 2. Phosphoinositide binding properties of the novel PH domains. The ability of the indicated GST fusion proteins to bind a variety of phosphoinositides was analysed using a protein-lipid overlay. Serial dilutions of the indicated phosphoinositides (100 pmol, 50 pmol, 25 pmol, 12.5 pmol, 6.3 pmol, 3.1 pmol and 1.6 pmol) were spotted onto a nitrocellulose membranes which were then incubated with the purified GST fusion proteins. The membranes were washed and the GST-fusion proteins bound to the membrane by virtue of their interaction with lipid were detected using a GST antibody. A representative of at least 3 separate experiments carried out is shown.
(§1) Protein-Lipid overlay. To assess the phosphoinositide binding properties of each PH domain, a protein-lipid overlay assay was performed using the GST fusion proteins as described previously. Briefly, 1 μl of lipid solution containing 1-100 pmol of phospholipids dissolved in a mixture of choroform:methanol:water (1:2:0.8) was spotted onto Hybond-C extra membrane and allowed to dry at room temperature for 1 h. The membrane was blocked in 3% (by mass) fatty acid-free BSA in TBST (50 mM Tris/HCl pH 7.5, 150 mM NaCl and 0.1% Tween-20 (by vol) for lh. The membrane was then incubated overnight at 4° C. with gentle agitation in the same solution containing 0.2 μg/ml of the indicated GST fusion protein. The membranes were washed 6 times over 30 min in TBST and then incubated for 1 h with 1/1000 dilution of anti-GST monoclonal antibody (Sigma). The membranes were washed as before, then incubated for 1 h with 1/5000 dilution of anti-mouse-HRP conjugate (Pierce). Finally, the membranes were washed 12 times over 1 h in TBST and the GST-fusion protein bound to the membrane by virtue of its interaction with phospholipid was detected by enhanced chemiluminescence.

Experiment [2] has as its system 6 of the PH domains identified (GST fusions). Description: Phosphoinositide binding of PH domains (protein-lipid overlay or surface plasmon resonance). The conditions noted are these: data not shown. How it is done: as §1, with “chemiluminescence. […]” for “chemiluminescence.”
We studied the specificity and affinity of interaction of the PH domains for phosphoinositide lipids using either a “protein-lipid overlay” assay (FIG. 2) or the more quantitative surface plasmon resonance based approach (Table 2). […]

Drawing on patent publication US20040106148A1, “Polypeptides” (priority 2000, published 2004), this text covers lipid binding and phosphoinositide binding for five compounds.

Regarding phosphatidylserine, the lipid binding result in experiment [1] is given as “None of the PH domains whose lipid binding properties were investigated in FIG. 2, interacted”.

phosphatidylcholine: the lipid binding entry in experiment [1] is “None of the PH domains whose lipid binding properties were investigated in FIG. 2, interacted”.

As to phospatidylinositol, the lipid binding result in experiment [1] was “None of the PH domains whose lipid binding properties were investigated in FIG. 2, interacted”.

Consider phosphatidylethanolamine, for which, in experiment [1], the lipid binding result was “None of the PH domains whose lipid binding properties were investigated in FIG. 2, interacted”.

As for `CCCCC/C=C\C/C=C\C/C=C\C/C=C\CCCC(=O)O[C@H](COC(=O)CCCCCCCCCCCCCCCCC)COP(=O)(O)O[C@H]1[C@H](O)[C@@H](OP(=O)(O)O)[C@H](OP(=O)(O)O)[C@@H](OP(=O)(O)O)[C@H]1O` [sn-1-stearoyl-2-arachidonyl-D-PtdIns(3,4,5)P3], in experiment [2], the phosphoinositide binding result is “did not bind”.
